Patent publication US20200283742A1, “METHOD FOR IMPROVING ACTIVITY OF PET-DEGRADING ENZYME BY USING ADDITIVE [As Amended]” (KEIO UNIVERSITY, priority 2017, published 2020)

How the values were obtained:
[1] = target: T1, PETase (Piscinibacter sakaiensis, UniProt A0A0K8P6T7); assay: PET-hydrolyzing activity of PETase on PET film in presence of surfactant (amount of degradation product MHET by HPLC); type: biochemical, Ideonella sp. No. 201-F6 strain; details: for PET-hydrolyzing activity compared with control (FIG. 2): surfactant 0.01% (w/v), pre-incubation 30° C. 1 hour, reaction 3 hours; for Relative activity: 0.01% SDS vs control
T1 construct: made in house; host or cells: Escherichia coli BL21 Codon Plus (DE3) RIPL
T1 sequence (A0A0K8P6T7 28-290): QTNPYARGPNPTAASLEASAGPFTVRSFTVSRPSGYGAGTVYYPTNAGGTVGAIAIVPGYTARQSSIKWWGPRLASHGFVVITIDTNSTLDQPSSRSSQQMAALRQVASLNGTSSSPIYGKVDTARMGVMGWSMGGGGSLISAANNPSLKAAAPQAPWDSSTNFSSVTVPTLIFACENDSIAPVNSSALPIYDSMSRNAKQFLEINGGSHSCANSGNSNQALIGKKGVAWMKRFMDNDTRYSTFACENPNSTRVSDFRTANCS
Procedure: In addition to the optimal conditions, a surfactant was added in a concentration of 0.001 to 0.01 (w/v) %, and the activity was then measured. As surfactants, six types of surfactants, namely. [A] Sodium Cholate (SC), [B] 3-[(3-Cholamidopropyl)dimethylammonio]propanesulfonate (CHAPS), [C] Sodium dodecyl sulfate (SDS), [D] Octylphenol ethoxylate (Triton X-114), [E] Polysorbate 80 (Tween 80), [F] and Dodecyltrimethylammoniumu chloride (DTMA-Cl), were used (FIG. 1). The surfactant, a buffer and a film were added to the reaction system, and the obtained mixture was then pre-incubated at 30° C. for 1 hour. Thereafter, the concentration of the enzyme was set at 50 nM, the film area was set at 3.39 cm^2/mL, and the reaction was carried out for 3 hours.
A system, to which no surfactants were added, was used as a control.
The film area was changed, and the enzyme concentration was set at 50 nM or 500 nM, and thereafter, the activity was measured under the optimal conditions and in the presence of 0.01(v/v) % SDS. Moreover, a comparison was made regarding the case of setting the enzyme concentration at 50 nM and the amount of the degradation product (monohydroxyethyl terephthalate (MHET)) depending on the reaction time.
The amount of the degradation product was measured by reverse phase high performance liquid chromatography (HPLC) in accordance with the method described in International Publication WO 2015/025861.
The pre-incubation time after addition of SDS was set at 0 or 1 hour, the reaction time was set at 1 hour, the enzyme concentration was set at […], and the film area was set at 3.39 cm^2/mL. Thereafter, a comparison was made in terms of the activity under the optimal conditions.
The enzyme concentration was set at 500 nM, the SDS concentration and the film area were changed, and the activity under the optimal conditions was then measured.

[2] = target: T1, PETase; assay: pNPB (p-nitrophenyl-butyrate)-hydrolyzing activity; type: biochemical, Ideonella sp. No. 201-F6 strain; details: 0.01 (w/v) % SDS; enzyme 250 nM; substrate pNPB
Procedure: In the following examples, the activity of PETase (PET-hydrolyzing activity) was measured using, as indicators, the amount of a degradation product and pNPB (p-nitrophenyl-butyrate)-hydrolyzing activity. Hereafter, a method of measuring pNPB (p-nitrophenyl-butyrate)-hydrolyzing activity is described.
pNPB used as an artificial substrate in the measurement of esterase activity is hydrolyzed into 1-butanoic acid and p-nitrophenol (pNP).
The pNPB-hydrolyzing activity immediately after purification of the enzyme was measured. The composition of a reaction solution is shown in Table 1. pNPB was dissolved in dimethyl sulfoxide (DMSO). The enzyme was mixed with a buffer, and the obtained mixture was then incubated at 30° C. for 30 minutes. Thereafter, the substrate was added to the reaction mixture, and a change in the absorbance at 425 nm for 1 minute was measured three times. The inclination (ΔAbs) of the measured absorbance change was applied to the following equation to obtain catalyst turnover frequency.
TOF: Catalyst turnover frequency; ε: Molar absorption coefficient; c: Enzyme concentration; 1: Thickness of solution layer; Δt: Reaction time.
The p-nitrophenyl-butyrate(pNPB)-hydrolyzing activity was measured in the presence of 0.01 (w/v) % SDS, in addition to the conditions shown in Table 1.

[3] = target: T1, PETase; assay: Amount of enzyme adsorbed on PET film (SDS-PAGE); design: species or system Ideonella sp. No. 201-F6 strain; details: SDS 0.01 to 0.04 (w/v) %; enzyme 500 nM; pre-incubation 1 hour; reaction 3 hours; film area 1.13 cm^2/mL
Procedure: The amount of the enzyme adsorbed on the film was observed under conditions in which the activity was changed by addition of a surfactant. SDS was added to the reaction system to result in a concentration of 0.01 (w/v) % to 0.04 (w/v) %, in addition to conditions of an enzyme concentration of 500 nM, a pre-incubation time of 1 hour, a reaction time of 3 hours, and a film area of 1.13 cm^2/mL. After completion of the reaction, the film was removed using tweezers, and was then rinsed with distilled water. The film was placed on the lid of a 1.5-mL tube, and thereafter, 10 μL of an SDS-PAGE sample buffer was added thereto. After that, the resultant was left at rest for 10 minutes, and was then centrifuged. The thus centrifuged solution was subjected to SDS-PAGE. Moreover, in addition to the conditions without addition of surfactants, a comparison was made with conditions including addition of DTMA-Cl that was a cationic surfactant.

[4] = enzyme 50 nM, film area 3.39 cm^2/mL
[5] = enzyme 50 nM, film area 1.13 cm^2/mL
[6] = enzyme 50 nM, film area 2.26 cm^2/mL
[7] = enzyme 50 nM, film area 5.65 cm^2/mL
[8] = enzyme 50 nM, film area 9.04 cm^2/mL
[9] = enzyme 50 nM, film area 11.3 cm^2/mL
[10] = enzyme 500 nM, film area 1.13 cm^2/mL
[11] = enzyme 500 nM, film area 2.26 cm^2/mL
[12] = enzyme 500 nM, film area 3.39 cm^2/mL
[13] = enzyme 500 nM, film area 5.65 cm^2/mL
[14] = enzyme 500 nM, film area 9.04 cm^2/mL
[15] = enzyme 500 nM, film area 11.3 cm^2/mL

## Polysorbate 80 [Tween 80]
[1]; [4]
  PET-hydrolyzing activity compared with control (FIG. 2): the activity was found with the surfactants other than Tween 80 and DTMA-Cl

## CCCCCCCCCCCCOS(=O)(=O)[O-].[Na+] [SDS, Sodium dodecyl sulfate]
[1]; [5]
  Relative activity: 2.47 fold
  Activity upon addition of 0.01% SDS: 793 h⁻¹
[1]; [6]
  Relative activity: 1.99 fold
  Activity upon addition of 0.01% SDS: 901 h⁻¹
[1]; [4]
  Relative activity: 1.86 fold
  Activity upon addition of 0.01% SDS: 1020 h⁻¹
  PET-hydrolyzing activity compared with control (FIG. 2): approximately two times greater than the activity of the control
[1]; [7]
  Relative activity: 1.75 fold
  Activity upon addition of 0.01% SDS: 1270 h⁻¹
[1]; [8]
  Relative activity: 1.99 fold
  Activity upon addition of 0.01% SDS: 1680 h⁻¹
[1]; [9]
  Relative activity: 1.72 fold
  Activity upon addition of 0.01% SDS: 1910 h⁻¹
[1]; [10]
  Relative activity: 2170 fold
  Activity upon addition of 0.01% SDS: 154 h⁻¹
[1]; [11]
  Relative activity: 50.6 fold
  Activity upon addition of 0.01% SDS: 260 h⁻¹
[1]; [12]
  Relative activity: 6.01 fold
  Activity upon addition of 0.01% SDS: 297 h⁻¹
[1]; [13]
  Relative activity: 3.58 fold
  Activity upon addition of 0.01% SDS: 451 h⁻¹
[1]; [14]
  Relative activity: 3.32 fold
  Activity upon addition of 0.01% SDS: 660 h⁻¹
[1]; [15]
  Relative activity: 3.11 fold
  Activity upon addition of 0.01% SDS: 743 h⁻¹
[1]; addition of SDS, enzyme 50 nM, film area 1.13 cm^2/mL
  Activity relative to control: approximately 2.5 times
[1]; addition of SDS, enzyme 50 nM, film area 11.3 cm^2/mL
  Activity relative to control: approximately 1.7 times
[1]; addition of SDS, enzyme 500 nM
  PET-hydrolyzing activity versus control: the activity was exhibited, although almost no activity was exhibited in the case of the control
[1]; enzyme 500 nM, film area of up to 5.65 cm^2/mL
  Optimal SDS concentration (FIG. 6): 0.02 (w/v) %
[1]; enzyme 500 nM, film area of up to 11.3 cm^2/mL
  Optimal SDS concentration (FIG. 6): 0.03 (w/v) %
[1]; in presence of SDS, enzyme 50 nM, reaction of 3 hours
  Change over time in amount of PET degradation product / enzyme stability (FIG. 3): almost no activity decrease took place
[1]; pre-incubation after SDS addition 0 or 1 hour, reaction 1 hour, enzyme 50 nM, film area 3.39 cm^2/mL
  Amount of degradation product depending on pre-incubation time (FIG. 5): the amount of a degradation product was changed depending on the pre-incubation time
[2]
  Reduction of pNPB-hydrolyzing activity after addition of SDS (FIG. 4): approximately 5%
[3]
  Amount of enzyme (protein) adsorbed on film (FIG. 7): adsorption of a large amount of protein was confirmed

## CCCCCCCCCCCC[N+](C)(C)C.[Cl-] [DTMA-Cl, Dodecyltrimethylammoniumu chloride]
[1]; [4]
  PET-hydrolyzing activity compared with control (FIG. 2): the activity was significantly decreased
